# Legend:
# [1] = cited from earlier work
# [2] = tested on: subjects suffering from active moderate to severe Crohn's disease; experiment: Phase III randomized, double-blind, placebo-controlled 52-week maintenance of remission study of laquinimod in Crohn's disease patients; format: in vivo, human; details: 0.25 mg/day oral vs 0.5 mg/day, Example 2
# Description: A phase III, randomized, double-blind, placebo-controlled 52-week maintenance of remission study of laquinimod is conducted in Crohn's disease patients.
# One or more capsules containing laquinimod 0.25 mg, laquinimod 0.5 mg, or matching placebo are administered orally once daily (QD)
# Patients with a Response at Week 12 in any of the induction studies, TV5500-IMM-30009, TV5600-IMM-30012, or TV5500-IMM-10013, are re-randomized into this placebo-controlled maintenance study. Response at Week 12 in those induction studies is defined as a Crohn's Disease Activity Index (CDAI) reduction of at least 10 points from Baseline at Week 12. No new patients are included in this maintenance study. […]
# Ileonclonoscopy is performed at Baseline Week 12b Visit from the induction study) and Week 52 to directly assess endoscopic disease and mucosal healing. The timing of the ileocolonoscopy is arranged so that it takes place after the final day on which data is recorded for the Week 52 CDAI assessment, and allows time for adequate ileocolonoscopy preparation; consequently, the Week 52 ileocolcnoscopy is performed separately from but within 7 days of) the other Week 52 assessments each endosoopy is recorded, read, and scored by a central reader for an endoscopic score of cDEIS, and mucosal healing determination, […]
# [3] = tested on: subjects suffering from active moderate to severe Crohn's disease; experiment: Phase III randomized, double-blind, placebo-controlled study of oral laquinimod in active moderate to severe Crohn's disease (12 weeks); format: in vivo, human; details: 0.25 mg/day oral vs 0.5 mg/day, Example 1
# Description: A phase III, multicenter, randomized, double-blind, placebo-controlled study is conducted to evaluate Laquinimod in active moderate to severe Crohn's disease. There are ˜540 Crohn's disease patients enrolled, divided into 3 arms of ˜180 patients, randomized in a […] ratio (˜180 subjects on laquinimod 0.25 mg, ˜180 on laquinimod 0.5 mg, and ˜180 on placebo). One or more capsules containing laquinimod 0.25 mg, laquinimod 0.5 mg, or matching placebo are administered orally once daily; A loading dose regimen of double the maintenance/intended dose is given during the first two days of study drug treatment. Thereafter, starting on day 3, the daily maintenance/intended dose is administered. Patients with moderate to severe Crohn's disease (CD), as determined by a Crohn's Disease Activity Index (CDM) score of 220-450 (inclusive) and evidence of active endoscopic inflammatory disease, based on Crohn's Disease Endoscopic index of Severity (CDEIS) score >6 points. […] The timing of the ileocelonosoopy is arranged so that it takes place after the last day on which data are recorded for the CDAI assessment. […] Each endoscopy is recorded, and then read and scored by a central reader for endoscopic scores of CDEIS and SES-CD. […]
# [4] = tested on: subjects suffering from active moderate to severe Crohn's disease; experiment: Phase III open-label 64-week induction and maintenance study of laquinimod in Crohn's disease patients; format: in vivo, human; details: 0.25 mg/day oral vs 0.5 mg/day, Example 3
# Description: A phase III, randomized, open-label 64-week induction and maintenance study of laquinimod is conducted in Crohn's disease patients,
# One capsule containing laquinimod 0.25 mg or laquinimod 0.5 mg is administered orally once daily at the same hour:
# Response at Week 12 in those induction studies is defined as a Crohn's Disease Activity Index (COAT) reduction, of at least 70 points from Baseline. It is anticipated that many non-responders received placebo in the induction studies, so that TV5600-IMM-30011 is their first opportunity to be exposed to any dose of laquinimod. No new patients are included in this study.
# Treatment duration is up to 64 weeks. The initial phase of the treatment duration is 12 weeks. Scheduled in-clinic visits are conducted at Baseline (Week 0, Visit 1) and at Weeks 2, 4, 8, and 12. The Baseline visit (Week 0, Visit 1) for this study is the same as the Week 12 visit in the relevant induction study (i.e., not an additional visit). Some additional procedures may be performed on this day, as a part of the TV5600-114M-30011 protocol but not the induction study protocol. Unscheduled visits for safety or for any other reason are conducted at any time during the study. At Week 12 (and at subsequent visits), patients undergo a clinical assessment and are offered either release from the study or continuation of maintenance therapy at the existing dose. […]
structure (smiles),measurement,setting,value
CCN(C(=O)c1c(O)c2c(Cl)cccc2n(C)c1=O)c1ccccc1 [laquinimod],oral bioavailability,[1],high
same,adverse effects of 0.25 mg/day as compared to 0.5 mg/day,[2],maintaining or reducing adverse effects
same,"efficacy of 0.25 mg/day as compared to 0.5 mg/day (symptoms, clinical response, remission, CDAI, CDEIS, mucosal healing, CRP, fecal calprotectin, IBDQ, WPAI:CD, EQ-5D)",[2],"at least as effective, or more effective"
same,adverse effects of 0.25 mg/day as compared to 0.5 mg/day,[3],maintaining or reducing adverse effects
same,"efficacy of 0.25 mg/day as compared to 0.5 mg/day (symptoms, clinical response, remission, CDAI, CDEIS, mucosal healing, CRP, fecal calprotectin, IBDQ, WPAI:CD, EQ-5D)",[3],"at least as effective, or more effective"
same,adverse effects of 0.25 mg/day as compared to 0.5 mg/day,[4],maintaining or reducing adverse effects
same,"efficacy of 0.25 mg/day as compared to 0.5 mg/day (symptoms, clinical response, remission, CDAI, CRP, fecal calprotectin, IBDQ, WPAI:CD, EQ-5D)",[4],"at least as effective, or mare effective"
